Columns and labels:
[1] = Pharmacokinetics and biodistribution by LCMS/MS; format: in vivo, mice; conditions: 2 mg/kg
Experimental: (§1) Drug release pharmacokinetics (PK) and biodistribution (BioD) studies were completed in mice systemically administered DSPE-PEG micelle, cyclodextrin or co-solvent formulated LGW01-08 for equivalent comparison, explained as follows. Formulated LGW1-08 was injected at a 2 mg/kg dose and blood collection was completed at the time points of 0, 0.5, 1, 2, 4, 8, and 24 hours post injection (n=5 mice per time point per formulation). Following blood collection via cardiac puncture, fluorescence and color images were acquired of the brain, lungs, liver, stomach, intestines, pancreas, spleen, kidney, bladder, brachial plexus, and sciatic nerves (n=3 mice per time point per formulation). Additionally, brain, lung, heart, liver, and kidney tissues were collected for liquid chromatography mass spectroscopy (LCMS/MS) analysis (n=5 mice per time point per formulation). The pharmacokinetic parameters were calculated from blood uptake kinetics data by non-compartmental analysis using Phoenix 64 (Certara, Princeton, N.J.), including the area under the concentration versus time curve from 0 to ∞ (AUC0-∞), plasma volume of distribution (Vd), clearance (CL) and half-life (t1/2).

[2] = test system: brachial plexus and sciatic nerves; test: Dose ranging pharmacodynamics imaging studies; format: in vivo, mice; conditions: two hours post injection
Experimental: Following PK studies to assess the maximum nerve signal to background ratio (SBR) for LGW1-08 in each formulation (2 hours), dose response pharmacodynamic (PD) studies were completed in mice using a dose range up to the MTD: 0.1, 0.2, 0.3, 0.6, 1, 1.5, 2, 2.5, and 3 mg/kg (n=3 mice per dose per formulation).
Nerve specific contrast and tissue biodistribution intensities were assessed for all initial testing, PK, BioD, and PD studies using the intraoperative fluorescence imaging systems to collect images of the nerves and surrounding tissue as well as the additional tissues for biodistribution assessment. Additional unstained control animals were imaged to assess tissue autofluorescence.
Custom written MatLab code was used to analyze the tissue specific fluorescence where regions of interest (ROIs) were selected using the white light images. These ROIs were then analyzed on the co-registered matched fluorescence images permitting assessment of the mean tissue intensities and nerve signal to background ratios. Intensity measurements were divided by the exposure time to obtain normalized intensity per second measurements.

[3] = test system: brachial plexus and sciatic nerves; test: Formulation nerve-specificity screening after systemic administration; format: in vivo, mice; conditions: preclinical mouse models
Experimental: Ox4 and LGW01-08 solubilized in each formulation were screened in mice following systemic administration for nerve specificity. 200 nmol of LGW01-08 in 100 μL of the four prepared formulations were administered intravenously to n=3 mice 4 hours before nerve imaging. The four hour fluorophore to imaging window had been previously shown to provide the highest nerve to background tissue fluorescence for Oxazine 4 and several other nerve specific fluorophores. Gibbs-Strauss et al. Molecular imaging 10, 91-101 (2011); Park et al. Theranostics 4, 823-833 (2014); Barth & Gibbs. Theranostics 7, 573-593 (2017). Uninjected animals were used for all control images (n=3 mice or 12 nerve sites/formulation).
Intraoperative Fluorescence Imaging Systems. A custom-built small animal imaging system capable of real-time color and fluorescence imaging was used to acquire rodent in vivo images. The imaging system consisted of a QImaging EXi Blue monochrome camera (Surrey, British Columbia, CA) for fluorescence detection with a removable Bayer filter for collecting co-registered color and fluorescence images. […] For fluorescence excitation, the PhotoFluor II was filtered with a 620±30 nm bandpass excitation filter. Resulting fluorescence was collected with a 700±37.5 nm bandpass emission filter for image collection. […] Camera exposure times ranged from 10-2000 ms for fluorescence image collection. […]

[4] = LGW01-08 solubility and loading in formulations (spectrophotometric quantification); format: physicochemical
Experimental: Based on the solubility of the nerve specific dye, liposomes sphingomyelin cholesterol (55:45), a FDA approved lipid mix was considered first for encapsulation of the agent as the lipid vesicles have both the lipid bilayer and hydrophilic core. Two common methods for preparation of liposomes are passive and pH gradient method. For passive loading method, both LGW01-08 and lipids were dissolved in a mixture of chloroform and methanol (70:30) and subjected to rotary evaporation under vacuum. […]
The next delivery platform which could increase the solubility of the nerve dye without compromising the nerve specificity was micelles. […] Commercially available (A-B-A block), PLURONIC® ethylene oxide-propylene oxide block co-polymer capable of self-assembly to form micelle was evaluated for encapsulating the nerve dye. […] The supernatant was passed through a 0.22μ filter and analyzed for nerve dye loading.
In order to achieve higher encapsulation, two more polymeric micelle platforms: Poly(ethylene glycol)(2 k)-block-poly(D,L-lactic acid) (1.8 k) (PEG-b-PLA) and Distearyl-phosphatidylethanolamine-PEG2000 (DSPE-PEG) were evaluated. […] Triplicate samples were prepared for quantification by diluting the complex 100-fold in 10% triton solution. […]
HP-β-CD complex was prepared by the solvent casting method. […] Triplicate samples were prepared for quantification by diluting the complex 100-fold in 10% triton solution. […]

[5] = test system: brachial plexus and sciatic nerves; test: Fluorescence imaging time course after systemic administration; format: in vivo, mice; conditions: 2 mg/kg, 24 hours after systemic administration, all formulations
Excerpt: as §1, with “Formulated LGW1-08 was injected at a 2 mg/kg dose and blood collection was completed at the time points of 0, 0.5, 1, 2, 4, 8, and 24 hours post injection (n=5 mice per time point per formulation).” left out, “(t1/2). Nerve specific contrast and tissue biodistribution intensities were assessed for all initial testing, PK, BioD, and PD studies using the intraoperative fluorescence imaging systems to collect images of the nerves and surrounding tissue as well as the additional tissues for biodistribution assessment. Additional unstained control animals were imaged to assess tissue autofluorescence. […]” for “(t1/2).”

nerve = conditions: Park et al. Theranostics 4, 823-833 (2014); cited from earlier work
[6] = DSPE-PEG micelle and cyclodextrin formulations

Row | Compound | blood concentrations over time ([1]; all formulations) | LGW01-08 cleared from the tissue ([1]; by 4 hours post injection) | nerve SBRs across all doses tested ([2]; 0.1-3 mg/kg) | dose at which fluorescence intensity values were highest [2, 6] [mg/kg] | fluorescence intensity values at the 0.1 mg/kg dose [2, 6] | dose up to which nerve to adipose background ratios increased [2] [mg/kg] | dose up to which nerve to muscle background ratios increased [2] [mg/kg] | nerve specificity following systemic administration [3] | solubility [4] [µg/mL] | nerve fluorescence signal intensities [5] | nerve specificity (nerve)
1 | CCNc1cc2oc3cc(=[N+](CC)CC)ccc-3nc2cc1C [LGW1-08, N-ethyl-N-(7-(ethylamino)-8-methyl-3H-phenoxazin-3-ylidene)ethanaminium] | decreased quickly | 90-99% | No significant difference | 2.5 | decreased to autofluorescence levels | 1.5 | 0.6 | high nerve specificity | 250 | close to baseline autofluorescence levels | –
2 | Oxazine 4 perchlorate | – | – | – | – | – | – | – | – | – | – | high nerve-specificity
